Entries after “also recorded” stand apart in the source; their conditions may differ. Structures can show the parent of a compound that is named as a salt.

Holding throughout (assay type): in vivo
The subject of assay [1] is transgenic mouse (MMTV-Wnt-1) spontaneous breast cancer. Nature of the assay: Antitumor effect in serial transplantation model of transgenic mouse (MMTV-Wnt-1) spontaneous breast cancer, C57BL/6J mice. How it is done: Spontaneous breast cancer of a transgenic mouse (MMTV-Wnt-1, The Jackson Laboratory) caused to locally express Wnt-1 in mammary gland epithelial cells was collected, transplanted in a mouse of background strain (C57BL/6J, Charles River Laboratories Japan, Inc.) by using a trocar, and passaged. The tumor thus transplanted and passaged was excised when becoming approximately 1.5 g, and prepared into approximately 30 mg of a fragment, which was subcutaneously transplanted to the sides of the bodies of five mice (C57BL/6J) each of a control group, an E7386 12.5, 25 or 50 mg/kg alone administration group, a lenvatinib mesylate 10 mg/kg alone administration group, and a combined administration group of 12.5, 25 or 50 mg/kg E7386 and 10 mg/kg lenvatinib mesylate. After confirmation of engraftment of the tumor, E7386 (12.5, 25 or 50 mg/kg, b.d.s., 14 days, oral administration) and lenvatinib mesylate (10 mg/kg, q.d., 14 days, oral administration) were administered alone or in combination to the alone administration group or the combined administration group. For the administration, E7386 was dissolved in 0.1 mol/L hydrochloric acid, and lenvatinib mesylate was dissolved in 3 mmol/L hydrochloric acid. 0.1 mol/L hydrochloric acid (b.d.s., 14 days) was administered to the control group.
When the start day of administration was defined as day 1, the major axis and minor axis of tumor developed in each mouse were then measured at day 4, day 8, day 11, and day 15 by using Digimatic Caliper (Mitutoyo Corp.).
The tumor volume and the relative tumor volume (RTV) were calculated according to the following expressions. Tumor volume (mm^3)=Tumor major axis (mm)×Tumor minor axis^2 (mm)/2 Relative tumor volume (RTV)=Tumor volume at the measurement day/Tumor volume at the start day of administration

The subject of assay [2] is Mouse breast cancer 4T1 cells. Nature of the assay: Antitumor effect in mouse breast cancer 4T1 orthotopic transplantation model. The protocol: Mouse breast cancer 4T1 cells (ATCC) were cultured by using RPMI1640 medium (Sigma-Aldrich Co. LLC) containing 10% FBS in a 5% CO2 incubator under conditions of 37° C. When the cells became an approximately 80% confluent state, the cells were recovered by using trypsin-EDTA. A suspension was prepared by adding Hank's balanced salt solution so as to be 1.0×10^7 cells/mL. 0.1 mL of the obtained cell suspension was transplanted to the right third mammary gland fat pads of five mice ([…], Charles River Laboratories Japan, Inc.) each of a control group, an E7386 25 mg/kg alone administration group, a lenvatinib mesylate 10 mg/kg alone administration group, and a combined administration group of 25 mg/kg E7386 and 10 mg/kg lenvatinib mesylate. From 9 days after the transplantation, E7386 (25 mg/kg, b.d.s., 14 days, oral administration) and lenvatinib mesylate (10 mg/kg, q.d., 14 days, oral administration) were administered alone or in combination to the alone administration group or the combined administration group. For the administration, E7386 was dissolved in 0.1 mol/L hydrochloric acid, and lenvatinib mesylate was dissolved in 3 mmol/L hydrochloric acid. Any drug was not administered to the control group.
When the start day of administration was defined as day 1, the major axis and minor axis of tumor developed in each mouse were then measured at day 3, day 6, day 9, and day 14 by using Digimatic Caliper (Mitutoyo Corp.).
(§1) The tumor volume and the relative tumor volume (RTV) were calculated according to the following expressions. Tumor volume (mm^3)=Tumor major axis (mm)×Tumor minor axis^2 (mm^2)/2 Relative tumor volume (RTV)=Tumor volume at the measurement day/Tumor volume at the start day of administration

The test system of assay [3] is Human breast cancer MDA-MB-231 cells. In words: Antitumor effect in human breast cancer MDA-MB-231 transplantation model, nude mice. How it is done:
Human breast cancer MDA-MB-231 cells (ATCC) were cultured by using RPMI1640 medium (Sigma-Aldrich Co. LLC) containing 10% FBS in a 5% CO2 incubator under conditions of 37° C. When the cells became an approximately 80% confluent state, the cells were recovered by using trypsin-EDTA. A suspension was prepared by adding Hank's balanced salt solution containing 50% Matrigel to the cells so as to be 10.0×10^7 cells/mL. 0.1 mL of the obtained cell suspension was subcutaneously transplanted to the sides of the bodies of five nude mice (CAnN.Cg-Foxn1^nu/CrlCrlj, Charles River Laboratories Japan, Inc.) each of a control group, an E7386 25 mg/kg alone administration group, a lenvatinib mesylate 10 mg/kg alone administration group, and a combined administration group of 25 mg/kg E7386 and 10 mg/kg lenvatinib mesylate. From 6 days after the transplantation, E7386 (25 mg/kg, b.d.s., 10 days, oral administration) and lenvatinib mesylate (10 mg/kg, q.d., 10 days, oral administration) were administered alone or in combination to the alone administration group or the combined administration group. For the administration, E7386 was dissolved in 0.1 mol/L hydrochloric acid, and lenvatinib mesylate was dissolved in 3 mmol/L hydrochloric acid. Any drug was not administered to the control group.
When the start day of administration was defined as day 1, the major axis and minor axis of tumor developed in each mouse were then measured at day 4, day 7, and day 10 by using Digimatic Caliper (Mitutoyo Corp.).
as §1

For assay [4], the system named is Human hepatocellular carcinoma line HepG2 cells. In words: Tumor vessel suppressive effect (CD31/α-SMA co-staining, MVD and PCI) in human hepatocellular carcinoma HepG2 subcutaneous transplantation model, nude mice. Conditions: FIG. 22; lenvatinib mesylate 10 mg/kg q.d. alone, 14 days oral; vs control group. How it is done:
For the administration, E7386 was dissolved in 0.1 mol/L hydrochloric acid, and lenvatinib mesylate was dissolved in 3 mmol/L hydrochloric acid. Any drug was not administered to the control group.

The mark [5] stands for this setting: Day 4, lenvatinib mesylate 10 mg/kg q.d. oral alone.
The mark [6] stands for this setting: Day 4, E7386 25 mg/kg b.d.s. oral alone.

As to `COc1cc2nccc(Oc3ccc(NC(=O)NC4CC4)c(Cl)c3)c2cc1C(N)=O` [Lenvatinib mesylate, 4-(3-chloro-4-(cyclopropylaminocarbonyl)aminophenoxy)-7-methoxy-6-quinolinecarboxamide, reference compound], the “Relative tumor volume (RTV), mean±SD” value came to 1.03 ± 0.13 in assay [1] (setting [5]); 0.87 ± 0.13 in assay [1] (Day 8, lenvatinib mesylate 10 mg/kg q.d. oral alone); 0.98 ± 0.21 in assay [1] (Day 11, lenvatinib mesylate 10 mg/kg q.d. oral alone); 1.05 ± 0.25 in assay [1] (Day 15, lenvatinib mesylate 10 mg/kg q.d. oral alone); 1.36 ± 0.28 in assay [2] (Day 3, lenvatinib mesylate 10 mg/kg q.d. oral alone); 1.46 ± 0.28 in assay [2] (Day 6, lenvatinib mesylate 10 mg/kg q.d. oral alone). The “Relative tumor volume (RTV), mean±SD” value in assay [2] (Day 9, lenvatinib mesylate 10 mg/kg q.d. oral alone) came to 1.75 ± 0.41; in assay [2] (Day 14, lenvatinib mesylate 10 mg/kg q.d. oral alone), 1.99 ± 0.26; in assay [3] (setting [5]) it was 2.01 ± 0.60; in assay [3] (Day 7, lenvatinib mesylate 10 mg/kg q.d. oral alone) it was 2.41 ± 0.60; in assay [3] (Day 10, lenvatinib mesylate 10 mg/kg q.d. oral alone) it was 2.67 ± 1.23. For the same compound, the “PCI (pericyte coverage index) (in words)” value in assay [4] is listed as “markedly increased; also recorded: statistically significantly increased pericyte coverage as compared with the control group”.

As to `C=CCN1CC(=O)N2[C@@H](Cc3ccc(O)cc3F)C(=O)N(Cc3cccc(N4CC(N5CCN(CC)CC5)C4)n3)C[C@@H]2N1C(=O)NCc1ccccc1` [E7386, (6S,9aS)—N-Benzyl-8-({6-[3-(4-ethylpiperazin-1-yl)azetidin-1-yl]pyridin-2-yl}methyl)-6-(2-fluoro-4-hydroxybenzyl)-4,7-dioxo-2-(prop-2-en-1-yl)hexahydro-2H-pyrazino[2,1-c][1,2,4]triazine-1(6H)-carboxamide], the “Relative tumor volume (RTV), mean±SD” value in assay [1] (Day 4, E7386 12.5 mg/kg b.d.s. oral alone) was determined as 1.34 ± 0.25; in assay [1] (setting [6]) it was 1.26 ± 0.28; in assay [1] (Day 4, E7386 50 mg/kg b.d.s. oral alone) it was 0.93 ± 0.23; in assay [1] (Day 8, E7386 12.5 mg/kg b.d.s. oral alone), 1.20 ± 0.40; in assay [1] (Day 8, E7386 25 mg/kg b.d.s. oral alone), 1.56 ± 0.48; in assay [1] (Day 8, E7386 50 mg/kg b.d.s. oral alone), 1.05 ± 0.26. The “Relative tumor volume (RTV), mean±SD” value in assay [1] (Day 11, E7386 12.5 mg/kg b.d.s. oral alone) was determined as 1.70 ± 0.67; in assay [1] (Day 11, E7386 25 mg/kg b.d.s. oral alone), 2.40 ± 0.22; in assay [1] (Day 11, E7386 50 mg/kg b.d.s. oral alone) it was 1.34 ± 0.35; in assay [1] (Day 15, E7386 12.5 mg/kg b.d.s. oral alone), 2.12 ± 0.65; in assay [1] (Day 15, E7386 25 mg/kg b.d.s. oral alone) it was 3.69 ± 0.92; in assay [1] (Day 15, E7386 50 mg/kg b.d.s. oral alone) it was 1.59 ± 1.03. Moreover, the “Relative tumor volume (RTV), mean±SD” value in assay [2] (Day 3, E7386 25 mg/kg b.d.s. oral alone) was 1.59 ± 0.38; in assay [2] (Day 6, E7386 25 mg/kg b.d.s. oral alone), 1.75 ± 0.42; in assay [2] (Day 9, E7386 25 mg/kg b.d.s. oral alone) it was 2.17 ± 0.76; in assay [2] (Day 14, E7386 25 mg/kg b.d.s. oral alone), 2.32 ± 0.68; in assay [3] (setting [6]), 2.34 ± 0.11; in assay [3] (Day 7, E7386 25 mg/kg b.d.s. oral alone) it was 3.19 ± 0.38. For the same compound, in assay [3] (Day 10, E7386 25 mg/kg b.d.s. oral alone), the “Relative tumor volume (RTV), mean±SD” value was found to be 4.49 ± 0.51.

Values taken from patent US12303505B2, “Tumor-treating pharmaceutical composition” (Eisai R&D Management Co., Ltd., priority 2017, dated 2025).
